Measurements as given in patent US8247370B2, “Conjoint therapy for treating fibrotic diseases” (Promedior, Inc., priority 2006, dated 2012).

Tested on: UUO-induced renal fibrosis
Assay: UUO-induced renal fibrosis, Masson Trichrome staining of kidney sections with image analysis
Type: in vivo, Sprague Dawley rats
Details: rat UUO kidney, day 14; hSAP 2 mg/kg iv q2d days 0-12; enalapril 200 mg/L in drinking water; HSA control approximately 22%, uninjured kidney approximately 5%
Experimental: Unilateral Ureter Obstruction (UUO) in the rat is a suitable model of renal fibrosis'. Renal fibrosis was induced in Sprague Dawley rats weighing 200-250 grams. Rats were anesthetized with ketamine (100 mg/kg) and xylazine (5 mg/kg). All surgical procedures were conducted using aseptic techniques.
The left kidney, renal artery and vein were exposed and the ureter occluded using suture. The surgical site was then sutured closed.
Human serum albumin in PBS (group 1) or hSAP in PBS (groups 2-5) was given to animals by intravenous (iv) injection every other day from day 0 to day 12 as detailed in Table 4. Enalapril was be added to the drinking water of animals in groups 2, 5 and 6, beginning on the day of study and continuing until sacrifice (day 14).
On day 14, animals were sacrificed and both the left occluded and right contralateral control kidneys excised.
To determine the extent of fibrosis induced by 14 days of UUO, kidney sections from all groups of animals were stained with Masson Trichrome and the extent of Trichrome positivity determined using image analysis (see FIG. 1). […] However, there was a significant inhibition in Trichrome staining in the animals treated with the combination of enalapril and hSAP (p<0.05; approximately 10%). […]

Molecule	extent of Trichrome staining (collagen deposition in the kidney)
CCOC(=O)[C@H](CCc1ccccc1)N[C@@H](C)C(=O)N1CCC[C@H]1C(=O)O [enalapril]	approximately 15%
hSAP: human serum amyloid P, a pentraxin family protein that suppresses fibrocyte differentiation	approximately 25%
